Results on 12 molecules are retold here after patent US20150011466A1, “APJ Receptor Compounds” (priority 2012, published 2015).

Read-outs that look alike come from different tables or passages of the source. Where a SMILES comes first, the peptide text is derived from it. [ ]: non-standard residue; d: D form. The star is where a group is joined. Palmitoyl = CCCCCCCCCCCCCCCC(=O)*; Aib = CC(C)(N)C(=O)O

Data set [1] concerns the target T1, APJ receptor (Homo sapiens, UniProt P35414).
T1 construct: expressed in transfected cells; host or cells: Human TRex cells (doxycycline-inducible)
T1 sequence (P35414 1-380): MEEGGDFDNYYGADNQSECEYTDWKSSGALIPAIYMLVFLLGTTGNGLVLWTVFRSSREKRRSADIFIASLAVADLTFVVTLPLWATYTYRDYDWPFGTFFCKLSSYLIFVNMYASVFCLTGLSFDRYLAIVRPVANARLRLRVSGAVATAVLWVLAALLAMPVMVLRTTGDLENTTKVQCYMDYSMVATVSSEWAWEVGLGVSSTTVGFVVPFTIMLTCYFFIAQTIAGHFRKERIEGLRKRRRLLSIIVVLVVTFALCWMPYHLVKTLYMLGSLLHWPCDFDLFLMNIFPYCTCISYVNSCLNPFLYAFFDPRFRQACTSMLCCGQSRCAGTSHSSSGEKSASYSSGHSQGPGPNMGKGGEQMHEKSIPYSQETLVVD
In words: HTRF cAMP assay, inhibition of NKH477 stimulated cAMP in Human TRex cells expressing APJ upon doxycycline induction (APJ-hTREX). Type of data set: cell-based. The note with it: for percent intrinsic activity at 0.3 µM: read-out: % IA (@ 300 nM); for Ranking: class combining EC50 and % histamine. The text has this:
HTRF (homogeneous time resolved fluorescence) is a technology developed by Cisbio Bioassays based on TR-FRET (time-resolved fluorescence resonance energy transfer). Cisbio Bioassays has developed a wide selection of HTRF-based assays compatible with whole cells, thereby enabling functional assays to run under more physiological conditions. The IP-One assays are competitive immunoassays using cryptate-labeled anti-IP1 monoclonal antibody and d2-labeled IP1. IP1 is a relatively stable downstream metabolite of IP3, and accumulates in cells following Gq receptor activation.
cAMP kits based on a competitive immunoassay using cryptate-labeled anti-cAMP antibody and d2-labeled cAMP were used to assay the effects of APJ compounds of the present invention. […] Cells are treated with […] doxycycline and seeded in all white 96 well plates @ 40 k/well overnight.
For orientation: TR-FRET usually uses a lanthanide donor and a delayed reading to cut background.

Data set [2] is described as follows: Histimine (% vs. 48/40).

In the case of `CCCCCCCCCCCCCCCC(=O)N[C@H](C(=O)N[C@H](C(=O)N[C@@H](Cc1ccccc1)C(=O)N[C@@H](CCCNC(=N)N)C(=O)N[C@@H](CO)C(=O)N[C@@H](CO)C(=O)N[C@@H](CCC(=O)O)C(=O)N[C@H](CCCCN)C(=O)N[C@@H](CCCNC(=N)N)C(=O)N[C@@H](CCCNC(=N)N)C(=O)N[C@@H](CO)C(=O)N[C@@H](C)C(=O)N[C@@H](CC(=O)O)C(=O)N[C@H](C(=O)N[C@@H](Cc1ccccc1)C(=O)NCC(N)=O)[C@@H](C)CC)C(C)C)[C@@H](C)O` [Compound 80] (Palmitoyl-TVFRSSE[dK]RRSADIFG-NH2), in data set [1], the percent intrinsic activity at 0.3 µM worked out at 35%. Moreover, the “Histimine (% vs. 48/40)” value in data set [2] came out at 52%.
Turning to `CCCCCCCCCCCCCCCC(=O)N[C@H](C(=O)N[C@H](C(=O)N[C@@H](Cc1ccccc1)C(=O)N[C@@H](CCCNC(=N)N)C(=O)N[C@@H](CO)C(=O)N[C@@H](CO)C(=O)N[C@@H](CCC(=O)O)C(=O)N[C@H](CCCCN)C(=O)N[C@@H](CCCNC(=N)N)C(=O)N[C@@H](CCCNC(=N)N)C(=O)N[C@@H](CO)C(=O)N[C@@H](C)C(=O)N[C@@H](CC(=O)O)C(=O)N[C@H](C(=O)N[C@@H](Cc1ccccc1)C(=O)N1CCC[C@H]1C(N)=O)[C@@H](C)CC)C(C)C)[C@@H](C)O` [Compound 56] (Palmitoyl-TVFRSSE[dK]RRSADIFP-NH2; C-terminus assumed), in data set [1], the Ranking entry is “*** (EC50<100 nM and % histamine>35%)”; the percent intrinsic activity at 0.3 µM came out at 92%. The EC50 in data set [1] (inhibition of NKH477 stimulated cAMP, APJ-hTREX cells, read-out: APJ-hTREX EC50) came to 15.4 nM. Also, in data set [2], the “Histimine (% vs. 48/40)” value is listed as 50%.
For the molecule `CCCCCCCCCCCCCCCC(=O)N[C@H](C(=O)N[C@H](C(=O)N[C@@H](Cc1ccccc1)C(=O)N[C@@H](CCCNC(=N)N)C(=O)N[C@@H](CO)C(=O)N[C@@H](CO)C(=O)N[C@@H](CCC(=O)O)C(=O)N[C@H](CCCCN)C(=O)N[C@@H](CCCNC(=N)N)C(=O)N[C@@H](CCCNC(=N)N)C(=O)N[C@@H](CO)C(=O)N1CCC[C@H]1C(=O)N[C@@H](CC(=O)O)C(=O)N[C@H](C(=O)N[C@@H](Cc1ccccc1)C(=O)N[C@H](C(N)=O)[C@@H](C)CC)[C@@H](C)CC)C(C)C)[C@@H](C)O` [Compound 52] (Palmitoyl-TVFRSSE[dK]RRSPDIFI-NH2), in data set [1], the percent intrinsic activity at 0.3 µM was determined as 45%. The “Histimine (% vs. 48/40)” value in data set [2] is listed as 75%.
As to `CCCCCCCCCCCCCCCC(=O)N[C@H](C(=O)N[C@@H](CCC(N)=O)C(=O)N[C@@H](Cc1ccccc1)C(=O)N[C@@H](CCCNC(=N)N)C(=O)N[C@@H](CO)C(=O)N[C@@H](CO)C(=O)N[C@@H](CCC(=O)O)C(=O)N[C@H](CCCCN)C(=O)N[C@@H](CCCNC(=N)N)C(=O)N[C@@H](CCCNC(=N)N)C(=O)N[C@@H](CO)C(=O)N[C@@H](C)C(=O)N[C@@H](CC(=O)O)C(=O)N[C@H](C(=O)N[C@@H](Cc1ccccc1)C(=O)N[C@H](C(N)=O)[C@@H](C)CC)[C@@H](C)CC)[C@@H](C)O` [Compound 21] (Palmitoyl-TQFRSSE[dK]RRSADIFI-NH2; C-terminus assumed), in data set [1], the EC50 came to 41 nM; the Ranking result is “*** (EC50<100 nM and % histamine>35%)”; the percent intrinsic activity at 0.3 µM was found to be 72%. Moreover, in data set [2], the “Histimine (% vs. 48/40)” value was determined as 39%.
Regarding `CCCCCCCCCCCCCCCC(=O)N[C@H](C(=O)N[C@H](C(=O)N[C@@H](Cc1ccccc1)C(=O)N[C@@H](CCCNC(=N)N)C(=O)N[C@@H](CO)C(=O)N[C@@H](CO)C(=O)N[C@@H](CCC(=O)O)C(=O)NC(C)(C)C(=O)N[C@@H](CCCNC(=N)N)C(=O)N[C@@H](CCCNC(=N)N)C(=O)N[C@@H](CO)C(=O)N[C@@H](C)C(=O)N[C@@H](CC(=O)O)C(=O)N[C@H](C(=O)N[C@@H](Cc1ccccc1)C(=O)N[C@H](C(N)=O)[C@@H](C)CC)[C@@H](C)CC)C(C)C)[C@@H](C)O` [Compound 60] (Palmitoyl-TVFRSSE[Aib]RRSADIFI-NH2; C-terminus assumed), in data set [1], the EC50 came to 167 nM; the Ranking entry is “**** (EC50 101-500 nM and % histamine<35%)”; the percent intrinsic activity at 0.3 µM worked out at 65%. Further, the “Histimine (% vs. 48/40)” value in data set [2] was 26%.
Regarding `CCCCCCCCCCCCCCCC(=O)N[C@H](C(=O)N[C@H](C(=O)N[C@@H](Cc1ccccc1)C(=O)N[C@@H](CCCNC(=N)N)C(=O)N[C@@H](CO)C(=O)N[C@@H](CO)C(=O)N[C@@H](CCC(=O)O)C(=O)N[C@H](CCCCN)C(=O)N[C@@H](CCCNC(=N)N)C(=O)N[C@@H](CCCNC(=N)N)C(=O)N[C@@H](CO)C(=O)N[C@@H](CCC(N)=O)C(=O)N[C@@H](CC(=O)O)C(=O)N[C@H](C(=O)N[C@@H](Cc1ccccc1)C(=O)N[C@H](C(N)=O)[C@@H](C)CC)[C@@H](C)CC)C(C)C)[C@@H](C)O` [Compound 28] (Palmitoyl-TVFRSSE[dK]RRSQDIFI-NH2), the percent intrinsic activity at 0.3 µM in data set [1] came to 8%. Further, the “Histimine (% vs. 48/40)” value in data set [2] came to 16%.
Consider `CCCCCCCCCCCCCCCC(=O)N[C@H](C(=O)N[C@H](C(=O)N[C@@H](Cc1ccccc1)C(=O)N[C@@H](CCCNC(=N)N)C(=O)N[C@@H](CO)C(=O)N[C@@H](CO)C(=O)N[C@@H](CCC(=O)O)C(=O)N[C@H](CCCCN)C(=O)N[C@@H](CCCNC(=N)N)C(=O)N[C@@H](CCCNC(=N)N)C(=O)N[C@@H](CO)C(=O)N[C@@H](C)C(=O)N[C@@H](CC(=O)O)C(=O)N[C@H](C(=O)N[C@@H](Cc1c[nH]cn1)C(=O)N[C@H](C(N)=O)[C@@H](C)CC)[C@@H](C)CC)C(C)C)[C@@H](C)O` [Compound 18] (Palmitoyl-TVFRSSE[dK]RRSADIHI-NH2), for which, in data set [1], the percent intrinsic activity at 0.3 µM stood at 56%. In data set [2], the “Histimine (% vs. 48/40)” value stood at 62%.
For `CCCCCCCCCCCCCCCC(=O)N[C@H](C(=O)N[C@H](C(=O)N[C@@H](Cc1ccccc1)C(=O)N[C@@H](CCCNC(=N)N)C(=O)N[C@@H](CO)C(=O)N[C@@H](CO)C(=O)N[C@@H](CCC(=O)O)C(=O)N[C@H](CCCCN)C(=O)NC(C)(C)C(=O)N[C@@H](CCCNC(=N)N)C(=O)N[C@@H](CO)C(=O)N[C@@H](C)C(=O)N[C@@H](CC(=O)O)C(=O)N[C@H](C(=O)N[C@@H](Cc1ccccc1)C(=O)N[C@H](C(N)=O)[C@@H](C)CC)[C@@H](C)CC)C(C)C)[C@@H](C)O` [Compound 61, TVFRSSEk(Aib)RSADIFI] (Palmitoyl-TVFRSSE[dK][Aib]RSADIFI-NH2; C-terminus assumed), in data set [1], the EC50 was determined as 5210 nM and the percent intrinsic activity at 0.3 µM turned out to be 62%. Also, in data set [2], the “Histimine (% vs. 48/40)” value amounted to 25%.
As to `CCCCCCCCCCCCCCCC(=O)N[C@H](C(=O)N[C@H](C(=O)N[C@@H](Cc1ccccc1)C(=O)N[C@@H](CCCNC(=N)N)C(=O)N[C@@H](CO)C(=O)N[C@@H](CO)C(=O)N[C@@H](CCC(=O)O)C(=O)N[C@H](CCCCN)C(=O)N[C@@H](CCCNC(=N)N)C(=O)N[C@@H](CCCNC(=N)N)C(=O)N[C@@H](CO)C(=O)N[C@@H](C)C(=O)N[C@@H](CC(=O)O)C(=O)N[C@H](C(=O)NCC(=O)N[C@H](C(N)=O)[C@@H](C)CC)[C@@H](C)CC)C(C)C)[C@@H](C)O` [Compound 79] (Palmitoyl-TVFRSSE[dK]RRSADIGI-NH2), the percent intrinsic activity at 0.3 µM in data set [1] stood at 39%. In data set [2], the “Histimine (% vs. 48/40)” value was determined as 43%.
As to `CCCCCCCCCCCCCCCC(=O)N[C@H](C(=O)N[C@H](C(=O)N[C@@H](Cc1ccccc1)C(=O)N[C@@H](CCCNC(=N)N)C(=O)N[C@@H](CO)C(=O)N[C@@H](CO)C(=O)N[C@@H](CCC(=O)O)C(=O)N[C@H](CCCCN)C(=O)N[C@@H](CCCNC(=N)N)C(=O)N[C@@H](CCCNC(=N)N)C(=O)N[C@@H](CO)C(=O)N[C@@H](C)C(=O)NC(C)(C)C(=O)N[C@H](C(=O)N[C@@H](Cc1ccccc1)C(=O)N[C@H](C(N)=O)[C@@H](C)CC)[C@@H](C)CC)C(C)C)[C@@H](C)O` [Compound 65, TVFRSSEkRRSA(Aib)IFI] (Palmitoyl-TVFRSSE[dK]RRSA[Aib]IFI-NH2), in data set [1], the percent intrinsic activity at 0.3 µM came to 45%. Further, the “Histimine (% vs. 48/40)” value in data set [2] worked out at 100%.
Take `CCCCCCCCCCCCCCCC(=O)N[C@H](C(=O)N[C@H](C(=O)N[C@@H](Cc1ccccc1)C(=O)N[C@@H](CCCNC(=N)N)C(=O)N[C@@H](CO)C(=O)N[C@@H](CO)C(=O)N[C@@H](CCC(=O)O)C(=O)N[C@H](CCCCN)C(=O)N[C@@H](CCCNC(=N)N)C(=O)N[C@@H](CCC(N)=O)C(=O)N[C@@H](CO)C(=O)N[C@@H](C)C(=O)N[C@@H](CC(=O)O)C(=O)N[C@H](C(=O)N[C@@H](Cc1ccccc1)C(=O)N[C@H](C(N)=O)[C@@H](C)CC)[C@@H](C)CC)C(C)C)[C@@H](C)O` [Compound 27] (Palmitoyl-TVFRSSE[dK]RQSADIFI-NH2): the percent intrinsic activity at 0.3 µM in data set [1] is 7%. Moreover, the “Histimine (% vs. 48/40)” value in data set [2] is given as 4%.
Turning to `CCCCCCCCCCCCCCCC(=O)N[C@H](C(=O)N[C@H](C(=O)N[C@@H](Cc1ccccc1)C(=O)N[C@@H](CCCNC(=N)N)C(=O)N[C@@H](CO)C(=O)N[C@@H](CO)C(=O)N[C@@H](CCC(=O)O)C(=O)N[C@H](CCCCN)C(=O)N[C@@H](CCCNC(=N)N)C(=O)N[C@@H](CCCNC(=N)N)C(=O)N[C@@H](CO)C(=O)N[C@@H](C)C(=O)N[C@@H](CC(=O)O)C(=O)N1CCC[C@H]1C(=O)N[C@@H](Cc1ccccc1)C(=O)N[C@H](C(N)=O)[C@@H](C)CC)C(C)C)[C@@H](C)O` [Compound 54] (Palmitoyl-TVFRSSE[dK]RRSADPFI-NH2), the percent intrinsic activity at 0.3 µM in data set [1] was 46%. Moreover, the “Histimine (% vs. 48/40)” value in data set [2] was 60%.

Usually EC50 stands for the concentration at which the effect is half-maximal.
